Assay results reported in PubChem BioAssay AID1850 (Southern Research Specialized Biocontainment Screening …, 2009).
pIC50: −log10 of the molar value. “And” between values parts separate entries of the source, which are not always exact repeats. Equal values may be shown once.

Test system: Salmonella Typhi PhoP-promoter GFP reporter, fluorescence, 4 h
Assay: Inhibition of PhoP regulon, Salmonella typhi GFP reporter cells, confirmation, 4 h (AID 1850)

| Structure (SMILES) | pIC50 |
| --- | --- |
| CC(C)(c1ccccc1)c1ccc(OCCCNCCO)cc1 | 4.14 |
| CCCOc1ccc(C(=O)NNC(=S)NC(=O)c2ccco2)cc1 | 4.13 |
| OC(CNCC1CCCO1)Cn1c2ccc(Cl)cc2c2cc(Cl)ccc21 (centres undefined) | 4.45 |
| Clc1cccc(/C=N\Nc2nccs2)c1 | 4.73 |
| CCOC(=O)N1CCN(Cc2cc(Cl)c3cccnc3c2O)CC1 | 4.21 |
| C=C1c2c(Cl)ccc(O)c2C(O)=C2C(=O)[C@]3(O)C(O)=C(C(N)=O)C(=O)[C@@H](N(C)C)[C@@H]3[C@@H](O)C12 (some centres undefined) | 6.10 |
| O=C(OCC(=O)N1CCOCC1)c1ccc[nH]c1=O | 4.44 |
| Cc1ccc(S(=O)(=O)NNc2ccccc2)c(C)c1 | 4.42 |
| CN1CCN(CCCN2c3ccccc3Sc3ccc(Cl)cc32)CC1 | 4.25 and 4.46 |
| Cc1ccc(C)c(NC(=O)c2ccccc2O)c1 | 4.12 |
| O=C(CCC(=O)Nc1ccc(Cl)cc1Cl)N/N=C/c1ccc([N+](=O)[O-])o1 | 4.63 |
| CN1CCC(OC(=O)c2ccc(Br)cc2)CC1 | 4.18 |
| O=C(Oc1c(Cl)cc(Cl)c2cccnc12)c1cccc([N+](=O)[O-])c1 | 5.08 |
| S=C(Nc1ccc(Cl)c(Cl)c1)NC1CCN(Cc2ccccc2)CC1 | 4.47 |
| Oc1ccc(C[C@@H]2CNCCN2CCC23CC4CC(CC(C4)C2)C3)cc1 | 4.15 |
| c1ccc(CN2CCC(Nc3nc(-c4ccccc4)nc4ccccc34)CC2)cc1 | 4.46 |
| CCCNC(=O)c1cn(CC)c2cc(N3CCN(C)CC3)c(F)cc2c1=O | 4.87 |
| CCCCOc1ccc(NC2=NC3(CCCCC3)N=C(N)N2)cc1 | 5.19 |
| CC1(CC(=O)N/N=C/c2cc([N+](=O)[O-])c(O)cc2O)OCCO1 | 4.11 |
| OCCNc1nc(Nc2ccccc2)nc2ccccc12 | 4.99 |
| O=C(CCc1ccccc1)NNC(=O)c1ccccn1 | 4.13 |

| Structure (SMILES) | pIC50 |
| --- | --- |
| C[C@H]1COc2c(N3CCN(C)CC3)c(F)cc3c(=O)c(C(=O)O)cn1c23 | > 6.64 |
| Cc1cc(NC2CCCCC2)nc(NCc2ccccc2)n1 | 4.47 |
| c1ccc2c(c1)CSc1sccc1C2=C1CCNCC1 | 4.30 |
| N=c1n(CCN2CCCCC2)c2ccccc2n1CC(=O)c1ccc(Cl)c(Cl)c1 | 4.46 |
| CC(C)(c1ccccc1)c1ccc(OCCCN2CCNCC2)cc1 | 4.25 |
| O=c1ccc2cc3c([nH]c4ccc(Br)cc43)oc-2c1O | 4.62 |
| CN1CCN(C2Cc3cc(Cl)ccc3Sc3cc(F)ccc32)CC1 (centres undefined) | 4.46 |
| Cc1ccc(-n2c(-c3ccc(Br)cc3)c[n+]3c2CCc2ccc4cccnc4c2-3)cc1 | 4.21 |
| Cc1ccc(N/C(=C\C(=O)c2ccccc2)C(=O)O)cc1 | 4.51 |
| Cc1ncc(CC(=O)n2cc(C(=O)c3cc(Cl)ccc3O)cn2)s1 | 4.08 |
| CC(C)N1CSC(=S)N(Cc2ccccc2)C1 | 3.97 |
| CN(C)CCN(C(=O)C1=COCCO1)c1nc2ccc(Cl)cc2s1 | 3.87 |
| O=C1CN(/N=C/c2ccc([N+](=O)[O-])o2)C(=O)N1 | 4.39 |
| O=C(NC(=S)NNC(=O)c1cccs1)c1ccco1 | 4.41 |
| Cc1c(N=Cc2cc(Br)cc(Br)c2O)cccc1C(=O)O | 4.39 |
| CC[n+]1c(/C=C/C=C/c2ccc(N(C)C)cc2)sc2ccccc21 | 4.41 |
| Cc1occc1C(=O)N/N=C/c1cccs1 | 4.16 |
| CCCCOCCCNc1ncnc2c1[nH]c1ccccc12 | 4.15 |
| Oc1c(Br)cc(Br)cc1C=Nc1ccc2[nH]ncc2c1 | 4.56 |
| NC(N)=N/N=C/c1ccc(OCc2ccccc2Cl)cc1 | 4.51 |
| CN(C)[C@@H]1C(=O)C(C(N)=O)=C(O)[C@@]2(O)C(=O)C3=C(O)c4c(O)cccc4[C@@](C)(O)C3[C@H](O)C12 (some centres undefined) | 5.99 and 5.40 |

| Structure (SMILES) | pIC50 |
| --- | --- |
| CN1CCC(OC(=O)c2ccc(Cl)cc2Cl)CC1 | 3.83 |
| COc1cc(/C=C/[N+](=O)[O-])ccc1O | 3.99 |
| CO[C@H]1C=CO[C@@]2(C)Oc3c(C)c(O)c4c(O)c(c(C=NN5CCN(C)CC5)c(O)c4c3C2=O)NC(=O)C(C)=CC=C[C@H](C)[C@H](O)[C@@H](C)[C@@H](O)[C@@H](C)[C@H](OC(C)=O)[C@@H]1C | 4.68 |
| O=C1C(=O)c2ccccc2-c2ccccc21 | 4.68 |
| O=[N+]([O-])c1cc(O)c2ncccc2c1 | 4.85 |
| CN(C)c1ccc(O)c2c1CC1CC3C(N(C)C)C(=O)C(C(N)=O)=C(O)[C@@]3(O)C(=O)C1=C2O (some centres undefined) | 5.05 |
| Cc1ccc(C(C[N+](=O)[O-])c2c(N)n(C)c(=O)n(C)c2=O)cc1 (centres undefined) | 3.84 |
| CC1CC(C)CN(CCOc2ccc(Cl)cc2Cl)C1 (centres undefined) | 3.95 |
| CCn1cc(C(=O)O)c(=O)c2cc(F)c(N3CCN(C(=S)NC(=O)c4ccccc4C)CC3)cc21 | 4.83 |
| CCOC(=O)c1ccc(CNCc2ccc(Br)cc2)cc1 | 4.10 |
| CCCCCCCCCCC[N+](C)(C)CC/C=C1/c2ccccc2Sc2ccc(Cl)cc21 | 4.41 |
| CCn1nc(C(=O)O)c(=O)c2cc3c(cc21)OCO3 | 4.46 |
| C[N+]12CN3CN(CN(C3)C1)C2 | 4.06 |
| Cc1cc(C)c2c(N)c3ccccc3nc2n1 | 4.11 |
| CC(C(=O)NC1C=CS(=O)(=O)C1)N1C(=O)/C(=C/c2cccc(Cl)c2)SC1=S (centres undefined) | 4.16 |
| CC1COc2c(N3CCN(C)CC3)c(F)cc3c(=O)c(C(=O)O)cn1c23 (centres undefined) | 6.51 |
| COc1cccc(Nc2nc(NCC3CCCO3)c3ccccc3n2)c1 (centres undefined) | 4.99 |
| Cc1ccc(-c2cc(-c3ccc(C)cc3)[n+](-c3ccccc3)c(-c3ccc(C)cc3)c2)cc1 | 4.46 |
| COc1cccc(Nc2nc(NCCO)c3ccccc3n2)c1 | 4.70 |
| O=C(Nc1nc(-c2ccccn2)cs1)c1ccc(Br)s1 | 4.62 |
| CC(C)(C)/C(O)=C/c1nc2cc(Cl)ccc2oc1=O | 4.74 |

| Structure (SMILES) | pIC50 |
| --- | --- |
| COc1c(N2CCNC(C)C2)c(F)cc2c(=O)c(C(=O)O)cn(C3CC3)c12 (centres undefined) | 6.54 |
| CN1CCN(c2cc3c(cc2F)c(=O)c(C(=O)O)cn3CCF)CC1 | 6.51 |
| Nc1ncncc1-c1ccc(Cl)cc1 | 3.84 |
| Fc1ccc([C@@H]2CCNC[C@H]2COc2ccc3c(c2)OCO3)cc1 | 4.37 |
| O=C(CC(=O)c1ccccc1O)c1cccc(F)c1 | 4.68 |
| CCn1cc(C(=O)O)c(=O)c2cc(F)c(N3CCN(C(=S)NC(=O)c4ccccc4)CC3)cc21 | 4.74 |
| OCCN1CCN(CCCN2c3ccccc3Sc3ccc(Cl)cc32)CC1 | 4.16 |
| C[C@H]1COc2c(C3(N)CC3)c(F)cc3c(=O)c(C(=O)O)cn1c23 | > 6.64 |
| CCN1c2ccccc2NC2N=C(OC)C(c3ccccc3)C21 (centres undefined) | 4.10 |
| Cc1cc(O)c2c(c1)C(=O)C13C(=C2O)C(=O)[C@H]2[C@@H](O)[C@@H]1[C@H]1[C@H](O)[C@@H]3C(=O)C3=C(O)c4c(O)cc(C)cc4C(=O)C312 (some centres undefined) | 5.29 |
| Oc1ccccc1Nc1nc(NCc2ccco2)c2ccccc2n1 | 4.46 |
| C=CCNc1ncnc2c1[nH]c1ccc(Cl)cc12 | 4.74 |
| CCCCOc1ccc(CN=C(N)N)cc1Cl | 3.87 |
| O=CN/N=C/c1c(O)ccc2ccccc12 | 4.45 |
| COc1ccc2c(C(=O)CCl)c[nH]c2c1 | 4.17 |
| O=C(N/N=C/c1cc(Cl)ccc1O)c1cccnc1 | 4.43 |
| Oc1c(Br)cc(Br)cc1C=NCc1ccc(F)cc1 | 4.24 |
| O=C(CCN1CCN(c2ccccc2)CC1)c1ccc(Cl)cc1 | 4.19 |
| CCCCCc1ccc(OCCCC[n+]2cccc(C)c2)c(CCCCC)c1 | 4.23 |
| Cc1ccc(S(=O)(=O)CCC(=O)c2ccc(O)cc2O)cc1 | 4.12 |
| CN1CCN(C(c2ccc(Cl)cc2)c2cc(Cl)c3cccnc3c2O)CC1 (centres undefined) | 4.71 |
